Drawing on patent publication US9102931B1, “Yeast strains and method for lignocellulose to ethanol production” (priority 2012, dated 2015), this text covers Km and Vmax for one compound.

In experiment [1] the test system is S. stipitis Y-7124 xylose proton symporters. Particulars: associated with S. stipitis symport, approximate (~); cited from earlier work.
The target of experiment [2] is T1, S. stipitis xylose transporter XUT7, SEQ ID NO: 65, in S. cerevisiae Y-50049-YXI-XUT7 (NRRL Y-50466) (Scheffersomyces stipitis, UniProt J9PER1).
T1 construct: whole-cell xylose uptake; S. stipitis CUG codons are read as Leu in this host
T1 sequence (J9PER1 1-418): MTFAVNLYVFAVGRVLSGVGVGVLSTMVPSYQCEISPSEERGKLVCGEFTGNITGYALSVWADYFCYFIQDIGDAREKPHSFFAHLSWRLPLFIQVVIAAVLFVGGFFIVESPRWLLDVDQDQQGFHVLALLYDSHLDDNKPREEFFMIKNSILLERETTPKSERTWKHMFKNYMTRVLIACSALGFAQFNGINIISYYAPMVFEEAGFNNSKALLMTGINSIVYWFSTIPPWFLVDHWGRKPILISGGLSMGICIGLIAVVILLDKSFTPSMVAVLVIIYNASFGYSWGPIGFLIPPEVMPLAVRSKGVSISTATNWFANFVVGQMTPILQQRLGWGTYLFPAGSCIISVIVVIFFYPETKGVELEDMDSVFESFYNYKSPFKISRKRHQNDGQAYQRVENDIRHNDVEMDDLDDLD
The experiment in a line: Aerobic xylose uptake kinetics (Lineweaver-Burk), Y-50049-YXI-XUT7. Format: cell-based. Particulars: whole cells, 30° C. An excerpt:
(§1) A portion of promoter and terminator for PGK1 was amplified from S. cerevisiae NRRL Y-50049 genomic DNA using primers PGK_PL/PGK_PR and PGK_TL/PGK_TR, as detailed in the Description of Sequences above. Amplified PGK1 fragments were cloned into vector pRS42H resulting in pRS42H -PGK1 promoter-terminator. Six putative xylose transporter genes XUT4, XUT5, XUT6, XUT7, RGT2, and SUT4 were amplified using various primers from the genomic DNA of S. stipitis. Each xylose transporter gene was cloned into the S. cerevisiae expression vector pRS42H-PGK1 promoter-terminator with proper restriction endonuclease sites designed. All DNA oligos were synthesized by IDT (Coralville, Iowa). […]
(§2) The relative performance of yeast strains Y-50746, Y-50747, Y-50748, Y-50749, Y-50465, and Y-50466 containing a xylose isomerase gene and a xylose xylose transporter gene was further assessed in cell populations that were first grown aerobically on xylose and then transferred into fresh culture medium at high cell density. […] Aerobic xylose uptake rate was assessed for the host strain Y-50049−YXI and each of its six xylose transporter-expressing derivatives. […] Once xylose was added to cultures, the reaction timing began, and the first sample was immediately taken, diluted for optical density reading, and centrifuged (10,000 rpm, 6 min). […]

For experiment [3], the target named is T2, S. stipitis xylose transporter RGT2, SEQ ID NO: 64, in S. cerevisiae Y-50049-YXI-RGT2 (NRRL Y-50465) (Scheffersomyces stipitis, UniProt J9PF54).
T2 construct: whole-cell xylose uptake; S. stipitis CUG codons are read as Leu in this host
T2 sequence (J9PF54 1-528): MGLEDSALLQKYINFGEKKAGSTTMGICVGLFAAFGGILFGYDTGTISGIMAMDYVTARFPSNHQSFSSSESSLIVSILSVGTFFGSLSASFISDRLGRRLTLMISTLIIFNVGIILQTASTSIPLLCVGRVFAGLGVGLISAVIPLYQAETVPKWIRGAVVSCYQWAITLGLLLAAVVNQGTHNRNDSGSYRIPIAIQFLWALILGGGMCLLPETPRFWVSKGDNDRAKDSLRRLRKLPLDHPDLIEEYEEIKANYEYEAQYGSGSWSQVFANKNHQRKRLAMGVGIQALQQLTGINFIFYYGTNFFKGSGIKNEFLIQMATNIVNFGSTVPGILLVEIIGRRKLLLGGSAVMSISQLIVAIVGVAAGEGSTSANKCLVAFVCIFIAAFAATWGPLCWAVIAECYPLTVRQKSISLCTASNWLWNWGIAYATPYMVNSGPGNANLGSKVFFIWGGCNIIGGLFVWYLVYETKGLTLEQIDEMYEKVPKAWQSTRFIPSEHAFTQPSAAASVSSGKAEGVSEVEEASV
As to the kind of experiment: Aerobic xylose uptake kinetics (Lineweaver-Burk), Y-50049-YXI-RGT2. The experiment is classed as cell-based. Particulars: whole cells, 30° C.
Excerpt: as §1, §2

In experiment [4] the target is T3, S. stipitis xylose transporter XUT4, SEQ ID NO: 68, in S. cerevisiae Y-50049-YXI-XUT4 (NRRL Y-50747) (Scheffersomyces stipitis, UniProt J9PED0).
T3 construct: whole-cell xylose uptake; S. stipitis CUG codons are read as Leu in this host
As to the kind of experiment: Aerobic xylose uptake kinetics (Lineweaver-Burk), Y-50049-YXI-XUT4. The experiment is classed as cell-based. Particulars: whole cells, 30° C.
Excerpt: as §1, §2

Experiment [5] addresses T4, S. stipitis xylose transporter XUT5, SEQ ID NO: 66, in S. cerevisiae Y-50049-YXI-XUT5 (NRRL Y-50746) (Scheffersomyces stipitis, UniProt A3LY79).
T4 construct: whole-cell xylose uptake; S. stipitis CUG codons are read as Leu in this host
The experiment in a line: Aerobic xylose uptake kinetics (Lineweaver-Burk), Y-50049-YXI-XUT5. Format: cell-based. Particulars: whole cells, 30° C.
Excerpt: as §1, §2

In experiment [6] the target is T5, S. stipitis xylose transporter XUT6, SEQ ID NO: 67, in S. cerevisiae Y-50049-YXI-XUT6 (NRRL Y-50749) (Scheffersomyces stipitis, UniProt J9Q9F3).
T5 construct: whole-cell xylose uptake; S. stipitis CUG codons are read as Leu in this host
T5 sequence (J9Q9F3 1-544): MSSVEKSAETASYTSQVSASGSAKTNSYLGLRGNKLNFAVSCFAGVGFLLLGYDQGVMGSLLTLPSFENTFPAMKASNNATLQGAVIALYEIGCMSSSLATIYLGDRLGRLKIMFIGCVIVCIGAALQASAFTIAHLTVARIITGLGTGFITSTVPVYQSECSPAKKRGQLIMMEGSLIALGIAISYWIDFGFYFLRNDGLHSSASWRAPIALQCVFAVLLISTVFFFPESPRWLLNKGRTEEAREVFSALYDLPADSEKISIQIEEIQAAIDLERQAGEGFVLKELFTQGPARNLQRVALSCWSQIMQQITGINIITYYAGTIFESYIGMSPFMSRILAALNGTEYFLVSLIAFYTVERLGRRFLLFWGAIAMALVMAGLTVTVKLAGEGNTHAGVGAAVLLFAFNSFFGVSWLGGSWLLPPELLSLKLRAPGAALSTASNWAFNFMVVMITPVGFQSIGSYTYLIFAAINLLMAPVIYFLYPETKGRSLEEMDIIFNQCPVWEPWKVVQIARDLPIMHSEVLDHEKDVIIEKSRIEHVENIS
As to the kind of experiment: Aerobic xylose uptake kinetics (Lineweaver-Burk), Y-50049-YXI-XUT6. Format: cell-based. To be noted: whole cells, 30° C.
Excerpt: as §1, §2

Experiment [7] concerns the target T6, S. stipitis xylose transporter SUT4, SEQ ID NO: 69, in S. cerevisiae Y-50049-YXI-SUT4 (NRRL Y-50748) (Scheffersomyces stipitis, UniProt J9Q8Z9).
T6 construct: whole-cell xylose uptake; S. stipitis CUG codons are read as Leu in this host
T6 sequence (J9Q8Z9 1-549): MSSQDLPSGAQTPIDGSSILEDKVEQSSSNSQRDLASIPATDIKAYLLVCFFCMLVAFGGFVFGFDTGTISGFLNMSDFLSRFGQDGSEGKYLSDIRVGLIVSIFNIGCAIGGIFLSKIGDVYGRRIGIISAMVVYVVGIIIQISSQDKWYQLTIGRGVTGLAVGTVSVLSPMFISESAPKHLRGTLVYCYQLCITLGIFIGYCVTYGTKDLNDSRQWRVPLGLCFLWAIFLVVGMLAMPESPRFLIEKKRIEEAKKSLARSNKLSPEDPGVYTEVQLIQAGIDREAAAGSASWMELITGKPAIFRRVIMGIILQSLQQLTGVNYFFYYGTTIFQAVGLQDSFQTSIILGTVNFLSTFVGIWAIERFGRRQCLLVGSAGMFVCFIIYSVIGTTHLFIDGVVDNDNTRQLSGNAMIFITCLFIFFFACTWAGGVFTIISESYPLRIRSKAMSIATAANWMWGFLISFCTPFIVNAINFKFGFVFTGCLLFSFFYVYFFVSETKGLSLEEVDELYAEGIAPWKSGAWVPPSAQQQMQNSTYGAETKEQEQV
The experiment in a line: Aerobic xylose uptake kinetics (Lineweaver-Burk), Y-50049-YXI-SUT4. Format: cell-based. To be noted: whole cells, 30° C.
Excerpt: as §1, §2

The test system of experiment [8] is native xylose uptake of S. cerevisiae Y-50049-YXI (control host strain, YXI xylose isomerase SEQ ID NO: 63, no added xylose transporter gene). As to the kind of experiment: Aerobic xylose uptake kinetics (Lineweaver-Burk), host strain Y-50049-YXI (control). The experiment is classed as cell-based. To be noted: whole cells, 30° C. From the text:
The relative performance of yeast strains Y-50746, Y-50747, Y-50748, Y-50749, Y-50465, and Y-50466 containing a xylose isomerase gene and a xylose xylose transporter gene was further assessed in cell populations that were first grown aerobically on xylose and then transferred into fresh culture medium at high cell density. Under these conditions a high metabolic carbon demand creates the potential for transport to be a limiting factor and amplifies volumetric xylose consumption from the medium. Aerobic xylose uptake rate was assessed for the host strain Y-50049−YXI and each of its six xylose transporter-expressing derivatives. […] Once xylose was added to cultures, the reaction timing began, and the first sample was immediately taken, diluted for optical density reading, and centrifuged (10,000 rpm, 6 min). […] Subsequent samples were collected at 2 h, 4 h, 6 h, and the specific xylose consumption rate (V) was calculated as the rate of decline in xylose concentration (X)/per dry cell concentration (b), assuming the linear correlation of dry yeast biomass concentration with absorbance, b=(0.167 g/L). […] The relative statistical differences between strain performances due to the specific transporter gene expressed were determined by running a two-way analysis of variance of V as a function of the transporter gene and the initial xylose concentration. […]

T3 sequence (J9PED0 entry or part of it): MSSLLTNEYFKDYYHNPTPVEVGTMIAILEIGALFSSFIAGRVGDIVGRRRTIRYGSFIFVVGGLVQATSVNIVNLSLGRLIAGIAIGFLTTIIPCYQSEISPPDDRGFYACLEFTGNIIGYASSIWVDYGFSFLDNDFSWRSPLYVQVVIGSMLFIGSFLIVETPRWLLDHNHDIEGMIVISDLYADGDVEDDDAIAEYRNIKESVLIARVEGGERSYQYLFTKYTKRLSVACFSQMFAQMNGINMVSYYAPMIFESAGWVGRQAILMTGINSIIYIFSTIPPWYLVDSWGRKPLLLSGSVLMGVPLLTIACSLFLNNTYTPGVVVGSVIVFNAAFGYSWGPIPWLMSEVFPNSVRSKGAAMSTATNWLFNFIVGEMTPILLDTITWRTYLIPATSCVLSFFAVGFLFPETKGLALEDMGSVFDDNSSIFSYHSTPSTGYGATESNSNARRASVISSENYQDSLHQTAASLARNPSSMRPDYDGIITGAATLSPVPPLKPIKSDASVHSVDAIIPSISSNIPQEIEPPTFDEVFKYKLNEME
T4 sequence (A3LY79 entry or part of it): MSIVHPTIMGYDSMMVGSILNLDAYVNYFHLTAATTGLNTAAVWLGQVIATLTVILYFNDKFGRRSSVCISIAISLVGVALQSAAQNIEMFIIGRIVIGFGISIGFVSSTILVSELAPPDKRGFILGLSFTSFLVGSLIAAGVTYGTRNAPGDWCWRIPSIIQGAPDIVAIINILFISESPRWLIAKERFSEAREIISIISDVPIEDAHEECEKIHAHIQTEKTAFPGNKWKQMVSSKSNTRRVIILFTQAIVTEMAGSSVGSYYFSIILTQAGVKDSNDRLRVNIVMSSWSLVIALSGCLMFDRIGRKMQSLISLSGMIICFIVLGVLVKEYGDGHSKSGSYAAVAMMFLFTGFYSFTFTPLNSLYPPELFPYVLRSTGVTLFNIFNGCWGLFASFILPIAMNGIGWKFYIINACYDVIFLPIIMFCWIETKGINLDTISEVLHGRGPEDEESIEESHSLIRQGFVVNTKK

On to `OC1OC[C@@H](O)[C@H](O)[C@H]1O` (stereo partly drawn) [xylose, D-xylose], for which the Michaelis constant (Km) (commonly the substrate concentration at which the rate is half of its maximum) in experiment [1] was 0.01 to 0.3 g/L. Further, the Vmax in experiment [2] was determined as 0.26 g/g/h; in experiment [3], 0.28 g/g/h; in experiment [4] it was 0.35 g/g/h; in experiment [5] it was 0.88 g/g/h; in experiment [6], 0.33 g/g/h; in experiment [7], 0.36 g/g/h. Also, the Vmax in experiment [8] is 0.14 g/g/h.
